Test results from patent US10837044B2, “Automated method for analyzing and interpreting an antimicrobial susceptibility” (FONDATION MEDITERRANEE INFECTION, priority 2014, dated 2020).

Columns and labels:
[1] = tested on: BSBL bacteria; details: all of the BSBL bacteria in Table C1
Excerpt: Synergies are generated with the method on agar by the antibiotics diffusing in the agar as a result of the fact that providing the distance between two antibiotics is small enough (in the range 2 centimeters (cm) to 2.5 cm for Gram negative bacteria) they are capable of diffusing over a common portion of the agar, and as a result it is the association of the two antibiotics in this specific location that makes it possible, where appropriate, to see the appearance of a new inhibition zone, which is the synergy zone.
In the event of synergy occurring, it is possible to see mechanisms of synergy between two antibiotics since an additional inhibition zone appears generally between the two antibiotics in question. It may be in the form of an enlargement of the diameter around the disk A going towards the disk B if A and B present mutual synergy.
The BSBL phenotype includes a synergy phenotype between ceftriaxone and clavulanic acid, and thus between CRO and TCC or AMC (for all of the BSBL bacteria in the table).

[2] = tested on: Enterobacter cloacea; assay: antibiogram by diffusion on Mueller-Hinton agar with antibiotic wafers; assay type: cell-based; details: Table C1, six wafers, disk loads of Table B
[3] = tested on: Escherichia coli; assay: as above; assay type: cell-based; details: for synergy zone between two antibiotic wafers placed side by side: E. coli strain of BSBL phenotype, champagne-cork shaped inhibition zone; for resistance (I, R) or sensitivity (S): Table C1, disk loads of Table B; for resistant (I/R) or sensitive (S): Table C2, square dish
[4] = tested on: Proteus mirabilis; assay: as above; assay type: cell-based; details: Table C1, six wafers, disk loads of Table B
[5] = tested on: Enterobacter aerogenes; assay: as above; assay type: cell-based; details: Table C1, six wafers, disk loads of Table B
[6] = tested on: Klebsiella pneumoniae; assay: as above; assay type: cell-based; details: for resistance (I, R) or sensitivity (S): Table C1, six wafers, disk loads of Table B; for resistant (I/R) or sensitive (S): Table C2, sixteen wafers, square dish
[7] = tested on: Klebsiella oxytoca; assay: as above; assay type: cell-based; details: Table C1; K. oxytoca phenotype Wild; six wafers, disk loads of Table B
[8] = E. coli phenotype BSBL, six wafers
[9] = E. coli phenotype Carbapenemase, six wafers
[10] = E. coli phenotype Hl cephalosporinase, six wafers
[11] = E. coli phenotype Hl penicillinase, six wafers
[12] = E. coli phenotype Inhibitor resistant penicillinase, six wafers
[13] = E. coli phenotype Ll penicillinase, six wafers
[14] = E. coli phenotype Wild, six wafers in a circle
[15] = E. coli phenotype Cephalosporinase + R to fluoroquinolones + R to cotrimoxazole + partial R to aminosides, sixteen wafers
[16] = E. coli phenotype Hl penicillinase + R to fluoroquinolones + R to cotrimoxazole + partial R to aminosides, sixteen wafers
[17] = E. coli phenotype Wild, sixteen wafers in a rectangular grid
[18] = P. mirabilis phenotype Hl cephalosporinase
[19] = P. mirabilis phenotype Hl penicillinase
[20] = P. mirabilis phenotype Inhibitor resistant penicillinase
[21] = P. mirabilis phenotype Ll penicillinase
[22] = K. pneumoniae phenotype Carbapenemase
[23] = K. pneumoniae phenotype Hl cephalosporinase
[24] = K. pneumoniae phenotype Hl penicillinase
[25] = K. pneumoniae phenotype Ll penicillinase
[26] = K. pneumoniae phenotype Cephalosporinase + R to aminosides + R to cotrimoxazole

| Compound | synergy phenotype between antibiotics [1] | resistance (I, R) or sensitivity (S) ([2]; E. cloacae phenotype BSBL) | resistance (I, R) or sensitivity (S) ([2]; E. cloacae phenotype Wild) | synergy zone between two antibiotic wafers placed side by side [3] | resistance (I, R) or sensitivity (S) [3, 8] | resistance (I, R) or sensitivity (S) [3, 9] | resistance (I, R) or sensitivity (S) [3, 10] | resistance (I, R) or sensitivity (S) [3, 11] | resistance (I, R) or sensitivity (S) [3, 12] | resistance (I, R) or sensitivity (S) [3, 13] | resistance (I, R) or sensitivity (S) [3, 14] | resistant (I/R) or sensitive (S) [3, 15] | resistant (I/R) or sensitive (S) [3, 16] | resistant (I/R) or sensitive (S) [3, 17] | resistance (I, R) or sensitivity (S) [4, 18] | resistance (I, R) or sensitivity (S) [4, 19] | resistance (I, R) or sensitivity (S) [4, 20] | resistance (I, R) or sensitivity (S) [4, 21] | resistance (I, R) or sensitivity (S) ([4]; P. mirabilis phenotype Wild) | resistance (I, R) or sensitivity (S) ([5]; E. aerogenes phenotype BSBL) | other results |
| --- | --- | --- | --- | --- | --- | --- | --- | --- | --- | --- | --- | --- | --- | --- | --- | --- | --- | --- | --- | --- | --- |
| amoxicillin-clavulanic acid [AMC] | synergy | R | S | synergy zone | R | R | R | I/R | R | S | S | R | I | S | R | I | R | S | S | R | synergy zone between two antibiotic wafers placed side by side ([3]; listed as amoxicillin+clavulanic acid): synergy; resistance (I, R) or sensitivity (S) ([5]; E. aerogenes phenotype Wild): S; resistance (I, R) or sensitivity (S) ([6]; K. pneumoniae phenotype BSBL): R; resistance (I, R) or sensitivity (S) [6, 22]: R; resistance (I, R) or sensitivity (S) [6, 23]: I/R; resistance (I, R) or sensitivity (S) [6, 24]: I/R; resistance (I, R) or sensitivity (S) [6, 25]: S; resistance (I, R) or sensitivity (S) ([6]; K. pneumoniae phenotype Wild): S; resistant (I/R) or sensitive (S) [6, 26]: R; resistant (I/R) or sensitive (S) ([6]; K. pneumoniae phenotype Wild): R; resistance (I, R) or sensitivity (S) [7]: S |
| CO/N=C(\C(=O)N[C@@H]1C(=O)N2C(C(=O)O)=C(CSc3nc(=O)c(=O)[nH]n3C)CS[C@H]12)c1csc(N)n1 [CRO, ceftriaxone] | synergy | R | S | synergy zone | R | R | R | S | S | S | S | R | S | S | R | S | S | S | S | R | synergy zone between two antibiotic wafers placed side by side ([3]; listed as ceftriaxone): synergy; resistance (I, R) or sensitivity (S) ([5]; E. aerogenes phenotype Wild): S; resistance (I, R) or sensitivity (S) ([6]; K. pneumoniae phenotype BSBL): I/R; resistance (I, R) or sensitivity (S) [6, 22]: R; resistance (I, R) or sensitivity (S) [6, 23]: I/R; resistance (I, R) or sensitivity (S) [6, 24]: I; resistance (I, R) or sensitivity (S) [6, 25]: S; resistance (I, R) or sensitivity (S) ([6]; K. pneumoniae phenotype Wild): S; resistant (I/R) or sensitive (S) [6, 26]: R; resistant (I/R) or sensitive (S) ([6]; K. pneumoniae phenotype Wild): R; resistance (I, R) or sensitivity (S) [7]: S |
